Source: US20260365670A1, “EGFR INHIBITORS AND USES THEREOF” (DIZAL (JIANGSU) PHARMACEUTICAL CO., LTD., priority 2022, published 2026)
Where two headings read alike, the source gives them in different places.

Experiments:
[1] = target: T1, EGFR (C797S L858R) (Homo sapiens, UniProt P00533, C797S/L858R); assay: Inhibition of EGFR (C797S L858R) biochemical enzymatic activity (HTRF); details: EGFR L858-C797S, 1 mM ATP, 1 h, room temperature, read-out: IC50 (nM) @L858-C797S
T1 construct: purchased signalchem
Method in brief: (§1)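 Time-resolved FRET assay of EGFR substrate phosphorylation. Conditions: 1 μM TK substrate-biotin, 1 mM ATP, Mg/Mn buffer, 1 h at RT. IC50 from 4-parameter curve fit.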

[2] = target: T2, EGFR wild type (Homo sapiens, UniProt P00533); assay: Inhibition of EGFR wild type biochemical enzymatic activity (HTRF); details: EGFR WT, 1 mM ATP, 1 h, room temperature, read-out: IC50 (nM) @WT
T2 construct: purchased Carna Bio
Method in brief: as §1

[3] = target: T3, EGFR[T790M/C797S/L858R] (Homo sapiens, UniProt P00533, C797S/L858R/T790M); assay: Inhibition of EGFR[T790M/C797S/L858R] biochemical enzymatic activity (HTRF); details: EGFR T790M-C797S-L858R, 1 mM ATP, 1 h, room temperature, read-out: IC50 (nM) @T790M- C797S - L858R
T3 construct: purchased Carna Bio
Method in brief: as §1

[4] = target: T4, EGFR L858R (Homo sapiens, UniProt P00533, L858R); assay: Inhibition of EGFR L858R biochemical enzymatic activity (HTRF); details: 1 mM ATP, 1 h, room temperature, read-out: IC50 (nM) @L858R
T4 construct: purchased Carna Bio
Method in brief: as §1

[5] = tested on: PC-9; assay: Cell proliferation assay, PC-9 cells (CellTiter-Glo, 72 hours); type: cell-based; details: PC9 cells, CellTiter-Glo, read-out: PC9 GI50
Method in brief: (§2)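 Growth over 72 h was quantified by CellTiter-Glo luminescence, normalised as (G3 − G0)/(DMSO G3 − G0), for PC-9 cells seeded at 500/well and EGFR-mutant Ba/F3 cells at 5000/well in RPMI1640. Compound concentration series added after overnight incubation; GI50 obtained from best-fit curves.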

[6] = target: T5, EGFR (d746-750 C797S) (Homo sapiens, UniProt P00533, C797S/DEL746-750); assay: Inhibition of EGFR (d746-750 C797S) biochemical enzymatic activity (HTRF); details: EGFR Del19-C797S, 1 mM ATP, 1 h, room temperature, read-out: IC50 (nM) @Del19-C797S
T5 construct: purchased signalchem
Method in brief: as §1

[7] = target: T6, EGFR Exon19Del (Homo sapiens, UniProt P00533, DEL746-750); assay: Inhibition of EGFR Exon19Del biochemical enzymatic activity (HTRF); details: EGFR Del19, 1 mM ATP, 1 h, room temperature, read-out: IC50 @Del19
T6 construct: purchased Carna Bio
Method in brief: as §1

[8] = target: T7, EGFR L858R/T790M (Homo sapiens, UniProt P00533, L858R/T790M); assay: Inhibition of EGFR L858R/T790M biochemical enzymatic activity (HTRF); details: EGFR L858R-T790M, 1 mM ATP, 1 h, room temperature, read-out: IC50 (nM) @L858R-T790M
T7 construct: purchased Carna Bio
Method in brief: as §1

[9] = target: T8, EGFR Exon19Del/T790M (Homo sapiens, UniProt P00533, DEL746-750/T790M); assay: Inhibition of EGFR Exon19Del/T790M biochemical enzymatic activity (HTRF); details: EGFR Del19-T790M, 1 mM ATP, 1 h, room temperature, read-out: IC50 (nM) @Del19-T790M
T8 construct: purchased Carna Bio
Method in brief: as §1

[10] = tested on: Ba/F3 cells expressing EGFR mutations; assay: Cell proliferation assay, Ba/F3 cells expressing EGFR mutations (CellTiter-Glo, 72 hours); type: cell-based; details: CellTiter-Glo
Method in brief: as §2

[11] = tested on: A-431; assay: Cell proliferation GI50, A-431 cells (Table 6); type: cell-based
[12] = target: T9, EGFR[T790M/C797S/d746-750] (Homo sapiens, UniProt P00533, C797S/DEL746-750/T790M); assay: Inhibition of EGFR[T790M/C797S/d746-750] biochemical enzymatic activity (HTRF); details: EGFR T790M-C797S-Del19, 1 mM ATP, 1 h, room temperature, read-out: IC50 (nM) @T790M - C797S - Del19
T9 construct: purchased Carna Bio
Method in brief: as §1

[13] = BaF3 cells, EGFR DEL19-C797S, read-out: DEL19-C797S/BaF3 GI50
[14] = BaF3 cells, EGFR DEL19-T790-C797S, read-out: DEL19-T790-C797S/BaF3 GI50
[15] = BaF3 cells, EGFR L858R, read-out: L858R/BaF3 GI50
[16] = BaF3 cells, EGFR L858R-C797S, read-out: L858R-C797S/BaF3 GI50
[17] = BaF3 cells, EGFR L858R-T790-C797S, read-out: L858R-T790-C797S/BaF3 GI50
[18] = BaF3 cells, EGFR L858R-T790M, read-out: L858R-T790M/BaF3 GI50
[19] = EGFR DEL19-T790M, read-out: DEL19-T790M GI50
[20] = Homo sapiens, A-431, A-431 cells

T8 sequence (P00533 with tags, fused parts or gaps DEL746-750/T790M limits assumed): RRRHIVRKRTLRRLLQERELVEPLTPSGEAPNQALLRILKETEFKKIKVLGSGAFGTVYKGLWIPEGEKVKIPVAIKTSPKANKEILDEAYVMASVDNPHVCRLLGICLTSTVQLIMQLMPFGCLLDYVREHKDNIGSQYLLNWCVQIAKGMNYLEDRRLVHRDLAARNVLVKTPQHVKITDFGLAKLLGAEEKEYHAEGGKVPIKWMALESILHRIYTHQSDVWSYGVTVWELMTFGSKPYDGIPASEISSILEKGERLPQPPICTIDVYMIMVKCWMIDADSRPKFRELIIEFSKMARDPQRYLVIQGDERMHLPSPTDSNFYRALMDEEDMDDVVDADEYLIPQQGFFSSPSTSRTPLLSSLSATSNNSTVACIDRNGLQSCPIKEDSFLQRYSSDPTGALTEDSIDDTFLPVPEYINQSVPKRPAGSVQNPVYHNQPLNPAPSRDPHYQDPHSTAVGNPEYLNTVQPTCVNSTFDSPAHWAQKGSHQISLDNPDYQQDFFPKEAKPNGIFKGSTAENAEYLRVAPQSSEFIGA
T7 sequence (P00533 25-1210 T790M/L858R): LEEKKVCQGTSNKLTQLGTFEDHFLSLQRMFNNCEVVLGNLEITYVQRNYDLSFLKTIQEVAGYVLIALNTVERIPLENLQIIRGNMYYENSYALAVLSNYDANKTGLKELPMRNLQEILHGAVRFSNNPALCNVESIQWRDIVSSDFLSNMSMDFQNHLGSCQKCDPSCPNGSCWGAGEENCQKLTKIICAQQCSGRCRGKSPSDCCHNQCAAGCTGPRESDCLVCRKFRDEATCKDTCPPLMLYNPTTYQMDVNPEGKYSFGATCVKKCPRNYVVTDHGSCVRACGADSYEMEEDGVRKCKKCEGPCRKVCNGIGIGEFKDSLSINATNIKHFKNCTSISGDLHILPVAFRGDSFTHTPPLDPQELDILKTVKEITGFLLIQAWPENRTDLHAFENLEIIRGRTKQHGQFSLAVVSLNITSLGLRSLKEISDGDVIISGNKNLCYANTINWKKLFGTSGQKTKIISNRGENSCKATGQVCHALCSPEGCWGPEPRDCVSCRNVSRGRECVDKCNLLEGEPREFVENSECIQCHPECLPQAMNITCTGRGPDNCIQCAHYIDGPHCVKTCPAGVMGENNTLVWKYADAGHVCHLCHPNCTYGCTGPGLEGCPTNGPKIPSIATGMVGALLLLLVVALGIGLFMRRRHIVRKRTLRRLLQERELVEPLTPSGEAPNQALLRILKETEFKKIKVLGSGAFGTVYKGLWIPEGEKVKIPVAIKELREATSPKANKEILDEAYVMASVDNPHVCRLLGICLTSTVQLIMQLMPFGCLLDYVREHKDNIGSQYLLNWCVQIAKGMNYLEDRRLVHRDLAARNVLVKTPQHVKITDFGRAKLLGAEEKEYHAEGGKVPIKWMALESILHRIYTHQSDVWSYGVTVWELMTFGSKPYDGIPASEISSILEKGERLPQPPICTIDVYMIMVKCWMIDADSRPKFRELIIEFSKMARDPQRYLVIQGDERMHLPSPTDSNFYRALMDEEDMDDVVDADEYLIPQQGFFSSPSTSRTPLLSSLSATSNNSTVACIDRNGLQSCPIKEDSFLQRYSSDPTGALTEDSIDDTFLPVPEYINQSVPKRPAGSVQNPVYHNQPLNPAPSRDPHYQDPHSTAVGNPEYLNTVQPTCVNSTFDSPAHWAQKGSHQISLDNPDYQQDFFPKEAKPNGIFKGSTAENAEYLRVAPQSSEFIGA
T5 sequence (P00533 with tags, fused parts or gaps DEL746-750/C797S limits assumed): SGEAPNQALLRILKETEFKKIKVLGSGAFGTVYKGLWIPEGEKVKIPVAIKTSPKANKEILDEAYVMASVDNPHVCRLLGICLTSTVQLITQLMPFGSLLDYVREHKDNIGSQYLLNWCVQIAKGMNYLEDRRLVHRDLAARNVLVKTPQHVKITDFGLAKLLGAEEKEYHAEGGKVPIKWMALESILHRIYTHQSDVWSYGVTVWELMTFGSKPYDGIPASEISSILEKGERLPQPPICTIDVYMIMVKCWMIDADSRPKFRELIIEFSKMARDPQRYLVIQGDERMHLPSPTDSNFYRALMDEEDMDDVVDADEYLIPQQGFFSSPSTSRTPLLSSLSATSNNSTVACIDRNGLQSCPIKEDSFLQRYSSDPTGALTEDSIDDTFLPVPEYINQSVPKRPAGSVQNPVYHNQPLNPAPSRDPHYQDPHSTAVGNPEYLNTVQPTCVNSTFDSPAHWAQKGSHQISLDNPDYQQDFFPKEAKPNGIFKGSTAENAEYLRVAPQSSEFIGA
T3 sequence (P00533 25-1210 T790M/C797S/L858R): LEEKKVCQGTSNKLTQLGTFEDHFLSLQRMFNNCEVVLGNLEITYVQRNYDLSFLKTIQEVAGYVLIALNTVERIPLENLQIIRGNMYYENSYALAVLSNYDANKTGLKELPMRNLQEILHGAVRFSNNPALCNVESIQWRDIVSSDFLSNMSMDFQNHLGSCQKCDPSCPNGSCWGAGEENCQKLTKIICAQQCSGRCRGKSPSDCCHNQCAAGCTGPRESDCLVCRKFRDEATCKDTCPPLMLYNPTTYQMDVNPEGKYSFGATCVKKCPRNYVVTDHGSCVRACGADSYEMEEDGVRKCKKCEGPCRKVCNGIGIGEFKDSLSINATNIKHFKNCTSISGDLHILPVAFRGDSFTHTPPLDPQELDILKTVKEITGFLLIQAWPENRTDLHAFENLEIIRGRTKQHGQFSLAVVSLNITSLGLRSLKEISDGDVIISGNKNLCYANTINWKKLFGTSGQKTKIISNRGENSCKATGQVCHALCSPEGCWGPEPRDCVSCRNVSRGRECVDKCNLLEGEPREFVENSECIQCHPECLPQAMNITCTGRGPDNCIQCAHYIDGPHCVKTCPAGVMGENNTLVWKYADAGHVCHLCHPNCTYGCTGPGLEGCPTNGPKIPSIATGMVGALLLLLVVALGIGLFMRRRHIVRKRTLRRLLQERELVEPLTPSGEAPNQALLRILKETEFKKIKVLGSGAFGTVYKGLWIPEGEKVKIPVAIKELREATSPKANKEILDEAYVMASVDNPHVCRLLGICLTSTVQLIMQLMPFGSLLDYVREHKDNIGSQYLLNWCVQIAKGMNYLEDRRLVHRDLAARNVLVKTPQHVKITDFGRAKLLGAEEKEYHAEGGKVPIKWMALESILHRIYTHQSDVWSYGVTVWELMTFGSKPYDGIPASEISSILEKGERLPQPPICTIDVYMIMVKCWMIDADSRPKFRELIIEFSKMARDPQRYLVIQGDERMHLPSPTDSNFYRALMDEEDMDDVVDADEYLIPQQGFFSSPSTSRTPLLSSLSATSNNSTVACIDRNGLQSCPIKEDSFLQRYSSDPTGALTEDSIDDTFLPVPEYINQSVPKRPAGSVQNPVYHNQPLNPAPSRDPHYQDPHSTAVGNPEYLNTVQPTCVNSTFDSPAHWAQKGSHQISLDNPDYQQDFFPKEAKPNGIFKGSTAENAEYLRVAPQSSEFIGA
T4 sequence (P00533 25-1210 L858R): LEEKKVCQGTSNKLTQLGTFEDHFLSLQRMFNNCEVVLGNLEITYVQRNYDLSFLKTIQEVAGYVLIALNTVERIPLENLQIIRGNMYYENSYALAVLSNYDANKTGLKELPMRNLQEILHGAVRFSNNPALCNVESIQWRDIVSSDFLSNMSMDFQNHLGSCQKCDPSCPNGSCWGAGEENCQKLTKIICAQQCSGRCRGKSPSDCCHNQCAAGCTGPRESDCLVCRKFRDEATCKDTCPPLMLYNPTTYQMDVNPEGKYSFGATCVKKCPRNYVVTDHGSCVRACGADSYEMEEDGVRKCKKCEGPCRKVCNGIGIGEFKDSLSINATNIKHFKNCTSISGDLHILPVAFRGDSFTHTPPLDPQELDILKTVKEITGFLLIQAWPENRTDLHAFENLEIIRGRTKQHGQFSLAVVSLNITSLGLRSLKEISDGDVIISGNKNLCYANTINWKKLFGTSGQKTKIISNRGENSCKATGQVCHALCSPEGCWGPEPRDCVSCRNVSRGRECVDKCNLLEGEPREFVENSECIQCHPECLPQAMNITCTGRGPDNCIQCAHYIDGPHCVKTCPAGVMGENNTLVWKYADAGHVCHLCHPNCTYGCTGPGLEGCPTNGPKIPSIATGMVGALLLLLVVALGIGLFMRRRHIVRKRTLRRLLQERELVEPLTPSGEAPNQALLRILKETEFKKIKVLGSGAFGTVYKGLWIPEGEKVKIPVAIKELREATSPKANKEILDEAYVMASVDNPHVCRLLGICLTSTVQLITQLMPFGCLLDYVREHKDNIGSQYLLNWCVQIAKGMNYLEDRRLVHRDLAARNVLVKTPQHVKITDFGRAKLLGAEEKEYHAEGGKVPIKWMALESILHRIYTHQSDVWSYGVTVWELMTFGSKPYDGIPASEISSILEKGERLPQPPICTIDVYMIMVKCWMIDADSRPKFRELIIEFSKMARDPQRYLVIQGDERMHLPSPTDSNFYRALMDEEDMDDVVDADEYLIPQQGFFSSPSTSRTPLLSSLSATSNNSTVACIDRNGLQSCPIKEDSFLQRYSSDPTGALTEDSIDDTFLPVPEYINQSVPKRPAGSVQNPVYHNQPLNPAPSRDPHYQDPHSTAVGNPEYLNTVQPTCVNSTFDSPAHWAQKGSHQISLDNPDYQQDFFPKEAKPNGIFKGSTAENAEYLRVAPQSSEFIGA

| Compound | IC50 [1] | IC50 [2] | IC50 [3] | IC50 [4] | GI50 [5] | IC50 [6] | IC50 [7] | IC50 [8] | IC50 [9] | GI50 [10, 13] | GI50 [10, 14] | GI50 [10, 15] | GI50 [10, 16] | GI50 [10, 17] | GI50 [10, 18] | GI50 [10, 19] | GI50 ([11]; A-431 cells) | IC50 [12] | GI50 [11, 20] |
| --- | --- | --- | --- | --- | --- | --- | --- | --- | --- | --- | --- | --- | --- | --- | --- | --- | --- | --- | --- |
| CN1CCCC12CN(c1ccc3nc4n(c3c1)C13CCC(CN(CCOc5c(cnn5C)-c5cc(cn(C)c5=O)C(=O)N4)C1)C3)C2 (single isomer, unassigned) [Example A76A] | 4300 nM | > 5000 nM | > 5000 nM | 2860 nM | 810 nM | 503 nM | 450 nM | > 5000 nM | > 5000 nM | 272 nM | 564 nM | 536 nM | 304 nM | 980 nM | 942 nM | 584 nM | 7930 nM | 4860 nM |  |
| CN1CCCC12CN(c1ccc3nc4n(c3c1)C13CCC(CN(CCOc5c(cnn5C)-c5cc(cn(C)c5=O)C(=O)N4)C1)C3)C2 (single isomer, unassigned) [Example A76B] | 27 nM | 206 nM | 6.9 nM | 39 nM | 23 nM | 3.5 nM | 4.2 nM | 7 nM | 4.9 nM | 0.78 nM | 12 nM | 13 nM | 7.6 nM | 34 nM | 39 nM | 12 nM | 1640 nM | 4.4 nM |  |
| CN1CCC2(CC1)CN(c1ccc3nc4n(c3c1)C13CCC(CN(CCOc5c(cnn5C)-c5cc(cn(C)c5=O)C(=O)N4)C1)C3)C2 (single isomer, unassigned) [Example A77B] | 3.7 nM | 7.3 nM | 3.4 nM | 3.5 nM | 2.1 nM | 2.1 nM | 2.9 nM | 3.8 nM | 3.8 nM | 0.72 nM | 0.91 nM | 0.89 nM | 1.4 nM | 1.3 nM | 2.4 nM | 0.85 nM |  | 3.6 nM | 310 nM |
| CN1CCC2(C1)CN(c1ccc3nc4n(c3c1)C13CCC(CN(CCOc5c(cnn5C)-c5cc(cn(C)c5=O)C(=O)N4)C1)C3)C2 (single isomer, unassigned) [Example A78A] | > 5000 nM | > 5000 nM | > 5000 nM | 2040 nM | 249 nM | 494 nM | 508 nM | > 5000 nM | > 5000 nM | 102 nM | 269 nM | 329 nM | 157 nM | 402 nM | 380 nM | 250 nM | 3050 nM | 3750 nM |  |
| CN1CCC2(C1)CN(c1ccc3nc4n(c3c1)C13CCC(CN(CCOc5c(cnn5C)-c5cc(cn(C)c5=O)C(=O)N4)C1)C3)C2 (single isomer, unassigned) [Example A78B] | 2.2 nM | 11 nM | 1.4 nM | 2.4 nM | 2.4 nM | 0.91 nM | 1.2 nM | 2.4 nM | 2.7 nM | 0.51 nM | 0.82 nM | 0.87 nM | 0.74 nM | 0.9 nM | 1 nM | 0.75 nM | 434 nM | 1.6 nM |  |
| CN1CCC2CN(c3ccc4nc5n(c4c3)C34CCC(CN(CCOc6c(cnn6C)-c6cc(cn(C)c6=O)C(=O)N5)C3)C4)CC21 (single isomer, unassigned) [Example A79B] | 13 nM | 126 nM | 8.3 nM | 27 nM | 23 nM | 5 nM | 6.3 nM | 12 nM | 10 nM | 0.7 nM | 10 nM | 12 nM | 8.5 nM | 14 nM | 37 nM | 13 nM |  | 11 nM | 1280 nM |
| CN1CCN(C2CCN(c3ccc4nc5n(c4c3)C34CCC(CN(CCOc6c(cnn6C)-c6cc(cn(C)c6=O)C(=O)N5)C3)C4)C2)CC1 (single isomer, unassigned) [Example A80B1, 15,21-Dimethyl-5-[3-(4-methylpiperazin-1-yl)pyrrolidin-1-yl]-23-oxa-2,9,11,15,20,21,26-heptaazaheptacyclo[24.4.1.1^{1,28}.1^{13,17}.0^{2,10}.0^{3,8}.0^{18,22}]tritriaconta-3,5,7,9,13,17(33),18(22),19-octaene-12,16-dione] | 8.8 nM | 9.3 nM | 6.7 nM | 7.2 nM | 11 nM | 3.1 nM | 3.2 nM | 7.8 nM | 6.2 nM | 0.55 nM | 1 nM | 1.2 nM | 3 nM | 1 nM | 4.2 nM | 1 nM | 6140 nM | 5.1 nM |  |
| CN1CCC2(CCN(c3ccc4nc5n(c4c3)C34CCC(CN(CCOc6c(cnn6C)-c6cc(cn(C)c6=O)C(=O)N5)C3)C4)C2)C1 (single isomer, unassigned) [Example A81A] | > 5000 nM | > 5000 nM | > 5000 nM | 1530 nM | 247 nM | 389 nM | 404 nM | > 5000 nM | > 5000 nM | 107 nM | 258 nM | 319 nM | 170 nM | 381 nM | 350 nM | 178 nM |  | > 5000 nM | 1320 nM |
| CN1CCC2(CCN(c3ccc4nc5n(c4c3)C34CCC(CN(CCOc6c(cnn6C)-c6cc(cn(C)c6=O)C(=O)N5)C3)C4)C2)C1 (single isomer, unassigned) [Example A81B] | 3.1 nM | 6.6 nM | 2.3 nM | 3.2 nM | 6.9 nM | 1.7 nM | 1.8 nM | 2.3 nM | 2.8 nM | 0.7 nM | 2.8 nM | 2.6 nM | 2.7 nM | 11 nM | 12 nM | 1.9 nM | 667 nM | 2.3 nM |  |
| CN1CCC2(CCN(c3ccc4nc5n(c4c3)C34CCC(CN(CCOc6c(cnn6C)-c6cc(cn(C)c6=O)C(=O)N5)C3)C4)CC2)C1 (single isomer, unassigned) [Example A82B] | 1.4 nM | 0.92 nM | 1.7 nM | 0.87 nM | 2.4 nM | 0.87 nM | 1.1 nM | 1.8 nM | 2.1 nM | 0.77 nM | 0.86 nM | 0.78 nM | 0.68 nM | 1 nM | 0.82 nM | 0.9 nM |  | 2 nM | 203 nM |
